Source: patent publication US11673883B2, “Heterocyclic compounds as immunomodulators” (Incyte Corporation, priority 2016, dated 2023)

The compounds below were run against PD-1/PD-L1 protein/protein interaction (Homo sapiens (Human), UniProt Q9NZQ7) (assay: PD-1/PD-L1 Homogeneous Time-Resolved Fluorescence (HTRF) Binding Assay). Settings: recombinant human PD-L1 (19-238) His-tag, human PD-1 (25-167) Fc tag; 25° C., PBS pH 7.4.
PD-1/PD-L1 protein/protein interaction, sequence (Q9NZQ7 19-238): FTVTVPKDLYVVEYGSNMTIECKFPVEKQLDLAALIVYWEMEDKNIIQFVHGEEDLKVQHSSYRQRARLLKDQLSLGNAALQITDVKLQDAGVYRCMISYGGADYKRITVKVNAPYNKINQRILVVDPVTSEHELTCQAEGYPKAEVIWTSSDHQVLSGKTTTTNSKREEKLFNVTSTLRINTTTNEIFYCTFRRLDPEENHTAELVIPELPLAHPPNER
Protocol: Example A. PD-1/PD-L1 Homogeneous Time-Resolved Fluorescence (HTRF) Binding Assay
The assays were conducted in a standard black 384-well polystyrene plate with a final volume of 20 μL. Inhibitors were first serially diluted in DMSO and then added to the plate wells before the addition of other reaction components. The final concentration of DMSO in the assay was 1%. The assays were carried out at 25° C. in the PBS buffer (pH 7.4) with 0.05% Tween-20 and 0.1% BSA. Recombinant human PD-L1 protein (19-238) with a His-tag at the C-terminus was purchased from AcroBiosystems (PD1-H5229). Recombinant human PD-1 protein (25-167) with Fc tag at the C-terminus was also purchased from AcroBiosystems (PD1-H5257). PD-L1 and PD-1 proteins were diluted in the assay buffer and […] was added to the plate well. Plates were centrifuged and proteins were preincubated with inhibitors for 40 minutes. The incubation was followed by the addition of 10 μL of HTRF detection buffer supplemented with Europium cryptate-labeled anti-human IgG (PerkinElmer-AD0212) specific for Fc and anti-His antibody conjugated to SureLight®-Allophycocyanin (APC, PerkinElmer-AD0059H). After centrifugation, the plate was incubated at 25° C. for 60 min. before reading on a PHERAstar FS plate reader (665 nm/620 nm ratio). Final concentrations in the assay were […], 10 nM PD-L1, 1 nM europium anti-human IgG and 20 nM anti-His-Allophycocyanin. IC50 determination was performed by fitting the curve of percent control activity versus the log of the inhibitor concentration using the GraphPad Prism 5.0 software.
For `N#Cc1c(-c2ccc3c(c2)OCCO3)cccc1N1CCC(NC2CC2)CC1` [Example 2, 2-(4-(cyclopropylamino)piperidin-1-yl)-6-(2,3-dihydrobenzo[b][1,4]dioxin-6-yl)benzonitrile], the IC50 was at most 100 nM. With `CO[C@H]1C[C@@H](NC2CCN(c3cccc(-c4ccc5c(c4)OCCO5)c3C#N)CC2)C1` [Example 14, 2-(2,3-dihydrobenzo[b][1,4]dioxin-6-yl)-6-(4-(cis-3-methoxycyclobutylamino)piperidin-1-yl)benzonitrile] the IC50 was at most 100 nM. `Cc1c(-c2ccccc2)cccc1N1CCC(NCC(=O)N2CCN(C(C)C)CC2)CC1` [Example 27, 1-(4-isopropylpiperazin-1-yl)-2-(1-(2-methylbiphenyl-3-yl)piperidin-4-ylamino)ethanone] was tested, and the IC50 was 100 to 500 nM. In the case of `N#Cc1c(-c2ccc3c(c2)OCCO3)cccc1N1CCC(NC2CCCOC2)CC1` (centres unmarked) [Example 16, 2-(2,3-dihydrobenzo[b][1,4]dioxin-6-yl)-6-(4-(tetrahydro-2H-pyran-3-ylamino)piperidin-1-yl)benzonitrile], the IC50 is reported as at most 100 nM. Compound `Cc1c(-c2ccccc2)cccc1N1CCC(N2CCCC2)CC1` [Example 32, 1-(2-methylbiphenyl-3-yl)-4-(pyrrolidin-1-yl)piperidine] has an IC50 of at most 100 nM. `N#Cc1c(-c2ccc3c(c2)OCCO3)cccc1N1CCC(NC2CC3(CCC3)C2)CC1` [Example 10, 2-(2,3-dihydrobenzo[b][1,4]dioxin-6-yl)-6-(4-(spiro[3.3]heptan-2-ylamino)piperidin-l-yl)benzonitrile] gave an IC50 of at most 100 nM. For `N#Cc1c(-c2ccc3c(c2)OCCO3)cccc1N1CCC(N[C@@H]2CCCC[C@H]2CO)CC1` (relative stereo) [Example 12, 2-(2,3-dihydrobenzo[b][1,4]dioxin-6-yl)-6-(4-(trans-2-(hydroxymethyl)cyclohexylamino)piperidin-1-yl)benzonitrile], the IC50 was at most 100 nM. Compound `Cc1c(-c2ccccc2)cccc1N1CCC(NC2CCc3c(c(C(=O)O)nn3C)C2)CC1` (racemic) [Example 38, 1-methyl-5-(1-(2-methylbiphenyl-3-yl)piperidin-4-ylamino)-4,5,6,7-tetrahydro-1H-indazole-3-carboxylic acid] has an IC50 of at most 100 nM. `N#Cc1c(-c2ccc3c(c2)OCCO3)cccc1N1CCC(NCC2(CO)CC2)CC1` [Example 4, 2-(2,3-dihydrobenzo[b][1,4]dioxin-6-yl)-6-(4-((l-(hydroxymethyl)cyclopropyl)methylamino)piperidin-1-yl)benzonitrile] gave an IC50 of at most 100 nM. For `N#Cc1c(-c2ccc3c(c2)OCCO3)cccc1N1CCC(NC2CCCCC2)CC1` [Example 20, 2-(4-(cyclohexylamino)piperidin-1-yl)-6-(2,3-dihydrobenzo[b][1,4]dioxin-6-yl)benzonitrile], the IC50 was at most 100 nM. In the case of `Cn1cc(CCNC2CCN(c3cccc(-c4ccc5c(c4)OCCO5)c3C#N)CC2)cn1` [Example 5, 2-(2,3-dihydrobenzo[b][1,4]dioxin-6-yl)-6-(4-(2-(1-methyl-1H-pyrazol-4-yl)ethylamino)piperidin-1-yl)benzonitrile], the IC50 is reported as at most 100 nM. Work on `Cc1c(-c2ccccc2)cccc1N1CCC(NC2CC(CO)C2)CC1` (centres unmarked) [Example 43, (3-(1-(2-methylbiphenyl-3-yl)piperidin-4-ylamino)cyclobutyl) methanol] yielded an IC50 of at most 100 nM. For `Cc1c(-c2ccccc2)cccc1N1CCC(NC2CCOC2)CC1` (racemic) [Example 42, 1-(2-methylbiphenyl-3-yl)-N-(tetrahydrofuran-3-yl)piperidin-4-amine], the IC50 was at most 100 nM. For `CC(C)(CO)CNC1CCN(c2cccc(-c3ccc4c(c3)OCCO4)c2C#N)CC1` [Example 6, 2-(2,3-dihydrobenzo[b][1,4]dioxin-6-yl)-6-(4-(3-hydroxy-2,2-dimethylpropylamino)piperidin-1-yl)benzonitrile], the IC50 was at most 100 nM. With `N#Cc1c(-c2cccc(F)c2)cccc1N1CCC(N2CCCC2)CC1` [Example 49, 3′-fluoro-3-(4-(pyrrolidin-1-yl)piperidin-1-yl)biphenyl-2-carbonitrile] the IC50 was at most 100 nM. Work on `Cc1c(-c2ccccc2)cccc1N1CCC(NC2CCC(C(=O)O)CC2)CC1` (single isomer, unassigned) [41 (peak 1), 4-(1-(2-methylbiphenyl-3-yl)piperidin-4-ylamino)cyclohexane-carboxylic acid] yielded an IC50 of at most 100 nM. For `Cc1c(-c2ccccc2)cccc1N1CCC(N[C@H]2CCC[C@H]2CO)CC1` (relative stereo) [Example 34, (cis-2-(1-(2-methylbiphenyl-3-yl)piperidin-4-ylamino)cyclopentyl) methanol], the IC50 was at most 100 nM. `COc1ccc(C2(CNC3CCN(c4cccc(-c5ccc6c(c5)OCCO6)c4C#N)CC3)CCOCC2)cc1` [Example 11, 2-(2,3-dihydrobenzo[b][1,4]dioxin-6-yl)-6-(4-((4-(4-methoxyphenyl)tetrahydro-2H-pyran-4-yl)methylamino)piperidin-1-yl)benzonitrile] showed an IC50 of at most 100 nM. `Cc1c(-c2ccccc2)cccc1N1CCC(NC2CCCC(C(=O)O)C2)CC1` (single isomer, unassigned) [46 (peak 2), 3-(1-(2-methylbiphenyl-3-yl)piperidin-4-ylamino)cyclohexane carboxylic acid] was tested, and the IC50 was at most 100 nM. `Cc1c(-c2ccccc2)cccc1N1CCC(NCC2(CO)CC2)CC1` [Example 26, (1-((1-(2-methylbiphenyl-3-yl)piperidin-4-ylamino)methyl)cyclopropyl)methanol] was tested, and the IC50 was at most 100 nM.
